In PMC4384635, “Autoinhibition of Bruton's tyrosine kinase (Btk) and activation by soluble inositol hexakisphosphate” (eLife, 2015):
Each block holds one compound with its values, some of them ahead of it.

Experiments:
[1] = biological target: T1, Bruton's tyrosine kinase (Btk) (Bos taurus, UniProt Q3ZC95, DEL171-383/L542M/S543T/V555T/R562K/S564A/P565S); format: binding
T1 construct: PH-TH-kinase construct (residues 1 to 170 connected to residues 384 to 659)

[2] = biological target: T2, Bruton's tyrosine kinase (Btk) (Bos taurus, UniProt Q3ZC95); assay: ITC; format: binding
T2 construct: PH-TH module (residues 1 to 172)
T2 sequence (Q3ZC95 1-172): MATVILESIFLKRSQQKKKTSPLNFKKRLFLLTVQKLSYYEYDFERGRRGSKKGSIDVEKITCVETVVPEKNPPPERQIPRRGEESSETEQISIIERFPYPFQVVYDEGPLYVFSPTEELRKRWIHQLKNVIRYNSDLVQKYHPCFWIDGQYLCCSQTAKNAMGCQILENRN

[3] = biological target: T2, Bruton's tyrosine kinase (Btk); assay: ITC; crystal structure at […] Å; also activates full-length Btk (EC50 around […]); format: binding
[4] = biological target: T3, Bruton's tyrosine kinase (Btk) (Bos taurus, UniProt Q3ZC95, N24D/R28C); assay: ITC with the canonical-site mutant (also printed as R28C/N24D and R28C/N24E); format: binding
T3 construct: PH-TH module (residues 1 to 172)
T3 sequence (Q3ZC95 1-172 N24D/R28C): as the sequence (Q3ZC95 1-172) above, with N24D, R28C counted along it

[5] = biological target: PH-TH module of bovine Btk (residues 1 to 172) (bovine) (UniProt Q3ZC95); assay: not stated; preliminary studies; dimerization of the PH-TH module induced by IP6; dimer to monomers
[6] = biological target: Src-like module of mouse Btk (SH3-SH2-kinase module, residues 214 to 659) (mouse) (UniProt P35991); assay: cross-linking; peak B; disuccinimidyl glutarate and PAGE analysis; results not shown
[7] = biological target: Src-like module of mouse Btk (SH3-SH2-kinase module, residues 214 to 659) (mouse) (UniProt P35991); assay: SEC; peak B from mono-Q, HiPrep S-200 16/60, 25 mM Tris·Cl pH 8.5, 25 mM NaCl, 5 mM DTT, 4°C

T1 sequence (Q3ZC95 entry or part of it DEL171-383/L542M/S543T/V555T/R562K/S564A/P565S): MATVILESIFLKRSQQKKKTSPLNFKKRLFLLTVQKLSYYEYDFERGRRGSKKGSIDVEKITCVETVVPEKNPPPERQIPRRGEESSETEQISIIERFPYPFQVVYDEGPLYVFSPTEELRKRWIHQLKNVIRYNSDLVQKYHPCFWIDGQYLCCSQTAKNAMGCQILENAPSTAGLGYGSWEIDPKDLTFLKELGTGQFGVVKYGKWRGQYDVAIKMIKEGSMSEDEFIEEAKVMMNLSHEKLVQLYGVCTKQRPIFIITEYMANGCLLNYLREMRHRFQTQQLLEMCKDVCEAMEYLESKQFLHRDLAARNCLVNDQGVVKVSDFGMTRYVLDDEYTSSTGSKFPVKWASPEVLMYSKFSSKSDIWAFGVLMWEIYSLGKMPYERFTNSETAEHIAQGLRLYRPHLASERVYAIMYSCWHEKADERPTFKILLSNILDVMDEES

Compound: Cc1c(NC(=O)c2ccc(C(C)(C)C)cc2)cccc1-c1cn(C)c(=O)c(Nc2ccc(C(=O)N3CCOCC3)cc2)n1 [CGI1746]
crystal structure at 1.7 Å [1]: structure of the PH-TH-kinase with a bound ATP-competitive inhibitor (CGI1746

Compound: O=P(O)(O)O[C@H]1[C@H](O)[C@@H](OP(=O)(O)O)[C@H](OP(=O)(O)O)[C@@H](OP(=O)(O)O)[C@H]1O [IP4, inositol tetrakisphosphate]
Kd [2]: 26 ± 6 nM

Other lines, results leading:

Kd [3]: 238 ± 32 nM | Kd [4]: 4760 ± 700 nM
Compound: O=P(O)(O)O[C@H]1[C@H](OP(=O)(O)O)[C@@H](OP(=O)(O)O)[C@H](OP(=O)(O)O)[C@@H](OP(=O)(O)O)[C@H]1OP(=O)(O)O [IP6, inositol hexakisphosphate]

Kd [5]: > 100000 nM
Compound: PH-TH module of bovine Btk (residues 1 to 172) (from UniProt Q3ZC95 1-172) (domain or fragment)

stoichiometry N [6]: 2 | stoichiometry N [7]: 2
Compound: Src-like module of mouse Btk (SH3-SH2-kinase module, residues 214 to 659) (from UniProt P35991 214-659) (domain or fragment)
